Test: solubility in rubber mixtures
Format: physicochemical
Details: in particular for vehicle tires and other technical rubber articles

solubility in rubber mixtures: very good
SMILES: CC(C)CC(C)Nc1ccc2[nH]c3ccccc3c2c1 (stereo not shown) [compound according to the invention, N-(1,3-dimethylbutyl)-9H-carbazol-3-amine]

Source: US20250100969A1, “COMPOUND, RUBBER BLEND CONTAINING THE COMPOUND, VEHICLE TIRE COMPRISING THE RUBBER BLEND IN AT LEAST ONE COMPONENT, PROCESS FOR PRODUCING THE COMPOUND, AND USE OF THE COMPOUND AS AN AGE RESISTOR AND/OR ANTIOXIDANT” (Continental Reifen Deutschland GmbH, priority 2021, published 2025)
